Source: US8952024B2, “Herbicidal pyrimidone derivatives” (E I du Pont de Nemours and Company, priority 2009, dated 2015)

Key:
Type in all cases: in vivo
[1] = test system: umbrella sedge (Cyperus difformis); test: Test B flooded paddy test; settings: for Plant response rating, Flood, Sedge, Umbrella: 250 g ai/ha, flooded paddy test, visual rating on 0 to 100 scale (0 no effect, 100 complete control) after 13 to 15 days; for Plant response rating, Sedge, Umbrella: Flood (flooded paddy test), 13 to 15 days
Method in brief: (§1)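 Flooded-pot test: water raised to 3 cm above soil when treating, compound put in the water, level unchanged thereafter. Plants were at 2 leaves. Readout after 13 to 15 days, visual, relative to controls; 0 signifies no effect and 100 complete control.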

[2] = test system: barnyardgrass (Echinochloa crus-galli); test: Test B flooded paddy test; settings: for Plant response rating, Flood, Barnyardgrass: 250 g ai/ha, flooded paddy test, visual rating on 0 to 100 scale (0 no effect, 100 complete control) after 13 to 15 days; for Plant response rating, Barnyardgrass: Flood (flooded paddy test), 13 to 15 days
Method in brief: as §1

rice (Oryza sativa) = test: Test B flooded paddy test; settings: for Plant response rating, Flood, Rice: 250 g ai/ha, flooded paddy test, visual rating on 0 to 100 scale (0 no effect, 100 complete control) after 13 to 15 days; for Plant response rating, Rice: Flood (flooded paddy test), 13 to 15 days
Method in brief: as §1

[3] = test system: ducksalad (Heteranthera limosa); test: Test B flooded paddy test; settings: for Plant response rating, Flood, Ducksalad: 250 g ai/ha, flooded paddy test, visual rating on 0 to 100 scale (0 no effect, 100 complete control) after 13 to 15 days; for Plant response rating, Ducksalad: Flood (flooded paddy test), 13 to 15 days
Method in brief: as §1

[4] = test system: wheat (Triticum aestivum); test: Test A pre-/postemergence plant response; settings: for Wheat plant response rating: visual injury, 0 to 100 scale (0 no effect, 100 complete control), approx. ten days
Method in brief: (§2)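 Plants grown from seed in a loam soil and sand mix received test compounds both as a preemergence soil spray and, at the same time, as a postemergence spray at the one- to two-leaf stage. Injury was judged visually against untreated controls roughly ten days later, 0 meaning no effect and 100 complete control.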

[5] = test system: barnyardgrass (Echinochloa crus-galli); test: Test A pre-/postemergence plant response; settings: for Barnyardgrass plant response rating: visual injury, 0 to 100 scale (0 no effect, 100 complete control), approx. ten days
Method in brief: as §2

[6] = test system: velvetleaf (Abutilon theophrasti); test: Test A pre-/postemergence plant response; settings: for Velvetleaf plant response rating: visual injury, 0 to 100 scale (0 no effect, 100 complete control), approx. ten days
Method in brief: as §2

[7] = test system: large crabgrass (Digitaria sanguinalis); test: Test A pre-/postemergence plant response; settings: for Crabgrass, Large plant response rating: visual injury, 0 to 100 scale (0 no effect, 100 complete control), approx. ten days
Method in brief: as §2

[8] = test system: pigweed (Amaranthus retroflexus); test: Test A pre-/postemergence plant response; settings: for Pigweed plant response rating: visual injury, 0 to 100 scale (0 no effect, 100 complete control), approx. ten days
Method in brief: as §2

corn (Zea mays) = test: Test A pre-/postemergence plant response; settings: for Corn plant response rating: visual injury, 0 to 100 scale (0 no effect, 100 complete control), approx. ten days
Method in brief: as §2

[9] = test system: morningglory (Ipomoea spp.); test: Test A pre-/postemergence plant response; settings: for Morningglory plant response rating: visual injury, 0 to 100 scale (0 no effect, 100 complete control), approx. ten days
Method in brief: as §2

[10] = test system: giant foxtail (Setaria faberii); test: Test A pre-/postemergence plant response; settings: for Foxtail, Giant plant response rating: visual injury, 0 to 100 scale (0 no effect, 100 complete control), approx. ten days
Method in brief: as §2

[11] = 62 g ai/ha, scale of 0 to 100 where 0 is no effect and 100 is complete control
[12] = Postemergence, 125 g ai/ha, 0 to 100 scale where 0 is no effect and 100 is complete control
[13] = Preemergence, 125 g ai/ha, 0 to 100 scale, 0 = no effect, 100 = complete control
[14] = Preemergence, 500 g ai/ha, 0 to 100 scale, 0 = no effect, 100 = complete control
[15] = 125 g ai/ha, scale 0 to 100, 0 is no effect, 100 is complete control
[16] = Flood, 31 g ai/ha, scale 0 to 100 (0 no effect, 100 complete control)

O=C1CCCC(O)=C1C(=O)c1cnc(-c2cccc(Br)c2)n(C2CCCCC2)c1=O [Compound 206]
Plant response rating, Flood, Sedge, Umbrella [1]: 85
Plant response rating, Sedge, Umbrella [1, 11]: 60
Plant response rating, Flood, Barnyardgrass [2]: 0
Plant response rating, Barnyardgrass [2, 11]: 0
Plant response rating, Flood, Rice (rice (Oryza sativa)): 20
Plant response rating, Rice (rice (Oryza sativa); [11]): 0
Plant response rating, Flood, Ducksalad [3]: 90
Plant response rating, Ducksalad [3, 11]: 70
Plant response rating, Wheat [4, 12]: 0
Wheat plant response rating ([4]; Postemergence, 500 g ai/ha): 0
Plant response rating, Wheat [4, 13]: 0
Plant response rating, Wheat [4, 14]: 0
Plant response rating, Barnyardgrass [5, 12]: 90
Barnyardgrass plant response rating ([5]; Postemergence, 500 g ai/ha): 100
Plant response rating, Barnyardgrass [5, 13]: 0
Plant response rating, Barnyardgrass [5, 14]: 20
Plant response rating, Velvetleaf [6, 12]: 100
Velvetleaf plant response rating ([6]; Postemergence, 500 g ai/ha): 100
Plant response rating, Velvetleaf [6, 13]: 0
Plant response rating, Velvetleaf [6, 14]: 60
Plant response rating, Crabgrass, Large [7, 12]: 60
Crabgrass, Large plant response rating ([7]; Postemergence, 500 g ai/ha): 100
Plant response rating, Crabgrass, Large [7, 13]: 10
Plant response rating, Crabgrass, Large [7, 14]: 60
Plant response rating, Pigweed [8, 12]: 90
Pigweed plant response rating ([8]; Postemergence, 500 g ai/ha): 100
Plant response rating, Pigweed [8, 13]: 30
Plant response rating, Pigweed [8, 14]: 80
Plant response rating, Corn (corn (Zea mays); [12]): 0
Corn plant response rating (corn (Zea mays); Postemergence, 500 g ai/ha): 0
Plant response rating, Corn (corn (Zea mays); [13]): 0
Plant response rating, Corn (corn (Zea mays); [14]): 0
Plant response rating, Morningglory [9, 12]: 100
Morningglory plant response rating ([9]; Postemergence, 500 g ai/ha): 100
Plant response rating, Morningglory [9, 13]: 0
Plant response rating, Morningglory [9, 14]: 0
Plant response rating, Foxtail, Giant [10, 12]: 50
Foxtail, Giant plant response rating ([10]; Postemergence, 500 g ai/ha): 90
Plant response rating, Foxtail, Giant [10, 13]: 0
Plant response rating, Foxtail, Giant [10, 14]: 60

O=C1CCCC(O)=C1C(=O)c1cnc(-c2ccccc2)n(CCC(F)(F)F)c1=O [Compound 207]
Plant response rating, Flood, Sedge, Umbrella [1]: 70
Plant response rating, Sedge, Umbrella [1, 11]: 40
Plant response rating, Sedge, Umbrella [1, 15]: 60
Sedge, Umbrella plant response rating [1, 16]: 0
Plant response rating, Flood, Barnyardgrass [2]: 20
Plant response rating, Barnyardgrass [2, 11]: 0
Plant response rating, Barnyardgrass [2, 15]: 0
Barnyardgrass plant response rating [2, 16]: 0
Plant response rating, Flood, Rice (rice (Oryza sativa)): 15
Plant response rating, Rice (rice (Oryza sativa); [11]): 0
Plant response rating, Rice (rice (Oryza sativa); [15]): 15
Rice plant response rating (rice (Oryza sativa); [16]): 0
Plant response rating, Flood, Ducksalad [3]: 50
Plant response rating, Ducksalad [3, 11]: 0
Plant response rating, Ducksalad [3, 15]: 0
Ducksalad plant response rating [3, 16]: 0
Plant response rating, Wheat [4, 12]: 0
Wheat plant response rating ([4]; Postemergence, 500 g ai/ha): 0
Plant response rating, Wheat [4, 13]: 0
Plant response rating, Wheat [4, 14]: 0
Plant response rating, Barnyardgrass [5, 12]: 60
Barnyardgrass plant response rating ([5]; Postemergence, 500 g ai/ha): 90
Plant response rating, Barnyardgrass [5, 13]: 10
Plant response rating, Barnyardgrass [5, 14]: 50
Plant response rating, Velvetleaf [6, 12]: 100
Velvetleaf plant response rating ([6]; Postemergence, 500 g ai/ha): 100
Plant response rating, Velvetleaf [6, 13]: 70
Plant response rating, Velvetleaf [6, 14]: 100
Plant response rating, Crabgrass, Large [7, 12]: 60
Crabgrass, Large plant response rating ([7]; Postemergence, 500 g ai/ha): 90
Plant response rating, Crabgrass, Large [7, 13]: 60
Plant response rating, Crabgrass, Large [7, 14]: 100
Plant response rating, Pigweed [8, 12]: 100
Pigweed plant response rating ([8]; Postemergence, 500 g ai/ha): 100
Plant response rating, Pigweed [8, 13]: 80
Plant response rating, Pigweed [8, 14]: 100
Plant response rating, Corn (corn (Zea mays); [12]): 0
Corn plant response rating (corn (Zea mays); Postemergence, 500 g ai/ha): 30
Plant response rating, Corn (corn (Zea mays); [13]): 0
Plant response rating, Corn (corn (Zea mays); [14]): 0
Plant response rating, Morningglory [9, 12]: 40
Morningglory plant response rating ([9]; Postemergence, 500 g ai/ha): 80
Plant response rating, Morningglory [9, 13]: 0
Plant response rating, Morningglory [9, 14]: 70
Plant response rating, Foxtail, Giant [10, 12]: 60
Foxtail, Giant plant response rating ([10]; Postemergence, 500 g ai/ha): 90
Plant response rating, Foxtail, Giant [10, 13]: 30
Plant response rating, Foxtail, Giant [10, 14]: 80
